{"source": "ChEMBL document CHEMBL1201862", "about": "“PubChem BioAssay data set” (2004)", "key": {"[1]": {"target": "T1, Replicative DNA helicase DnaB (Mycobacterium tuberculosis, UniProt P9WMR3)", "T1 sequence (P9WMR3 whole entry)": "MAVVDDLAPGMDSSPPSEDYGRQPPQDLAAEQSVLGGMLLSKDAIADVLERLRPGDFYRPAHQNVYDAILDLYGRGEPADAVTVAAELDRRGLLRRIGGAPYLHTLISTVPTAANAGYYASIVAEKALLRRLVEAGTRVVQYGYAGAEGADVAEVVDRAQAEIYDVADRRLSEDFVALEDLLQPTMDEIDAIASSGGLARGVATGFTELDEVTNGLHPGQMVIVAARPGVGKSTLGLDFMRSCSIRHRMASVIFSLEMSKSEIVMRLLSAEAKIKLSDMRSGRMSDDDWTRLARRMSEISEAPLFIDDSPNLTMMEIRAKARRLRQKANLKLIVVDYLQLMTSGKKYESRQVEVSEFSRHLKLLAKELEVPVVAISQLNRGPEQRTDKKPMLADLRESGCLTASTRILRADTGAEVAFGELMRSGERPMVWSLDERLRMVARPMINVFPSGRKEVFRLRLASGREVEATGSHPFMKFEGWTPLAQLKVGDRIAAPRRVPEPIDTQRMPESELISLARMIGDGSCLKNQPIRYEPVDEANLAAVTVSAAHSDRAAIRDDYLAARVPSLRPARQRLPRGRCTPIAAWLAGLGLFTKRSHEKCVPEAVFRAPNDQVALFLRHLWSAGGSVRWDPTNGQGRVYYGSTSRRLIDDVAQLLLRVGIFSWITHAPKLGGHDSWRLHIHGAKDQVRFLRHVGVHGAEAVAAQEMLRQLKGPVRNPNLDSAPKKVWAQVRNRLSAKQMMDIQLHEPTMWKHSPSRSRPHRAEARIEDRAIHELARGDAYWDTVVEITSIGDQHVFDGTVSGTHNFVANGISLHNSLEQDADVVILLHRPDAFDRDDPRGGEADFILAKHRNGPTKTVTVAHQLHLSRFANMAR", "test": "DnaB intein splicing inhibitors, dose response, biochemical, cell-free fluorescence (AID 449749)", "type": "functional"}, "Protein RecA": {"target": "T2, Protein RecA (Mycobacterium tuberculosis, UniProt P9WHJ3)", "T2 sequence (P9WHJ3 whole entry)": "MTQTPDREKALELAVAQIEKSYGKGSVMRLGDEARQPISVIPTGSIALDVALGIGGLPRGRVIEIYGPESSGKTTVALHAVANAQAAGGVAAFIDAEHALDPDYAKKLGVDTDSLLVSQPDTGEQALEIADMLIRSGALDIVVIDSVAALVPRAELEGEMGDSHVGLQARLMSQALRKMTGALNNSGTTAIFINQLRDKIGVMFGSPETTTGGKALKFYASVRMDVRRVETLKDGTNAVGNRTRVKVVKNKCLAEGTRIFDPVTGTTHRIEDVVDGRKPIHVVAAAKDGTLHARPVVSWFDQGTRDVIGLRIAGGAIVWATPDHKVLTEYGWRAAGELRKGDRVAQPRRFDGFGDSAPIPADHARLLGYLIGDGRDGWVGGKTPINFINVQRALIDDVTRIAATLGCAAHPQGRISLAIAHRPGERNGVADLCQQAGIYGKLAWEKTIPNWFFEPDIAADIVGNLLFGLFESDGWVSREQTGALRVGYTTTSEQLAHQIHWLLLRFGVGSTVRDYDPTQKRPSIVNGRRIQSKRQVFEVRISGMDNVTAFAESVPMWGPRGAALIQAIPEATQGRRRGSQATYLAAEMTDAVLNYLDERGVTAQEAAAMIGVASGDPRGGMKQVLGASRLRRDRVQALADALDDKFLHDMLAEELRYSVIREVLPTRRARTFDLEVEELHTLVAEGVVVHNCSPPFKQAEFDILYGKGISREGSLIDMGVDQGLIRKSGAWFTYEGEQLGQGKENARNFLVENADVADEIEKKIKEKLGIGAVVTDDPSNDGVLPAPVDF", "test": "Fluorescence Cell-Free Homogeneous Dose Retest to Identify Inhibitors of RecA-Intein Splicing Activity. [Related pubchem assays (depositor defined):AID2097, AID2223, AID489010, AID492950]", "type": "functional"}, "[2]": {"target": "Mitochondrial peptide methionine sulfoxide reductase (Bos taurus, UniProt P54149)", "sequence (P54149 whole entry)": "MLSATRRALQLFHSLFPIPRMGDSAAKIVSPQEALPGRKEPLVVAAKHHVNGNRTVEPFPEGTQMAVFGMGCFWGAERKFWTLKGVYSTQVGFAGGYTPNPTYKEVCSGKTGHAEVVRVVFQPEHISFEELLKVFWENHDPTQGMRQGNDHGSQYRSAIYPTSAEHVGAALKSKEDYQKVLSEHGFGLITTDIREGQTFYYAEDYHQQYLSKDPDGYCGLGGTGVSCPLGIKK", "test": "Absorbance-based biochemical high throughput dose response assay for activators of Methionine sulfoxide reductase A (MsrA).", "type": "functional"}, "[3]": {"target": "T3, Microphthalmia-associated transcription factor (Homo sapiens, UniProt O75030)", "T3 sequence (O75030 whole entry)": "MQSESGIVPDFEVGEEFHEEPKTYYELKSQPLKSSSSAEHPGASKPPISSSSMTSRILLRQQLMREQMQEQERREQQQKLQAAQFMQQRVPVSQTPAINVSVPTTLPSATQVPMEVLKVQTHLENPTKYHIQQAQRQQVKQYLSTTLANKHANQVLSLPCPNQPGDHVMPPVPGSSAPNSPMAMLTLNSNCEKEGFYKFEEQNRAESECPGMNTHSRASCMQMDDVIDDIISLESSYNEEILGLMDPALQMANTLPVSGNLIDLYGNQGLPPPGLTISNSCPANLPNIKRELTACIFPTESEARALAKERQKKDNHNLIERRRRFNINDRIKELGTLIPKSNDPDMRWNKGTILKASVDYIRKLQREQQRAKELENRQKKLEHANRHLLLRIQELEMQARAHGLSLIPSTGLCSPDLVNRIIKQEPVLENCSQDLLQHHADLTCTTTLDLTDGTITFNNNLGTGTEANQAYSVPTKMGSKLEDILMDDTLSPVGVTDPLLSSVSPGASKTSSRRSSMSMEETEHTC", "test": "TRPM1 promoter luciferase signal decrease, dose response, MITF inhibitor project, cell-based, SK-MEL-5, cherry-picked, set 3 (AID 493073)", "type": "functional"}, "[4]": {"test": "cytotoxicity in HEK-293T cells, dose response, cytotoxicity control for BCR NF-kB inhibitor project, luminescence, B-cell screen hits (AID 489021);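 further: cells exposed to compound for about 14 hours before viability readout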", "type": "functional, cell-based"}, "[5]": {"test": "Shn3 3'UTR reporter inhibitors, dose response, cell-based, Clone20 osteoblasts, firefly luciferase, cherry-picked (AID 624132)", "type": "functional"}, "[6]": {"test": "HepG2 cell cytotoxicity, dose response, cytotoxicity control for Shn3 inhibitor project, CellTiter-Glo, cherry-picked (AID 624134)", "type": "functional, cell-based"}, "[7]": {"test": "control 3'UTR Renilla luciferase suppression, dose response, counter-screen for Shn3 inhibitor project, cell-based, Clone20-Shn3RL, cherry-picked (AID 624133)", "type": "functional"}, "Interleukin-8 [8]": {"target": "T4, Interleukin-8 (Homo sapiens, UniProt P10145)", "T4 sequence (P10145 whole entry)": "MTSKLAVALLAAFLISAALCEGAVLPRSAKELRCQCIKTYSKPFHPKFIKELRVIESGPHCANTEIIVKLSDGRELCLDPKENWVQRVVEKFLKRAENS", "test": "Dose Response confirmation of uHTS small molecule hits for cystic fibrosis induced NFkb Inhibitors in a TNFa-induced IL8 counterscreen.", "type": "functional", "conditions": "read-out: IC50_Mean"}, "Interleukin-8 [9]": {"target": "T4, Interleukin-8", "test": "Dose Response confirmation of uHTS small molecule hits for cystic fibrosis induced NFkb Inhibitors in a PAF-induced IL8 counterscreen.", "type": "functional", "conditions": "read-out: IC50_Mean"}}, "note": "Calls of active or inactive are those of the source.", "data": [{"smiles": "O=C1c2ccccc2C(=O)c2cc(S(=O)(=O)Nc3ccccc3)ccc21", "values": [{"measurement": "AC50", "setting": "[1]", "result": "29.8 µM (active)"}, {"measurement": "EC50", "setting": "Protein RecA", "result": "12.1 µM (active)"}, {"measurement": "EC50", "setting": "[2]", "result": "> 104 µM (inactive)"}]}, {"smiles": "CC(C)(C)C(=O)/C(=C/c1ccncc1)n1cncn1", "values": [{"measurement": "AC50", "setting": "[3]", "result": "6.63 µM (active)"}, {"measurement": "IC50", "setting": "[4]", "result": "> 80 µM (inactive)"}, {"measurement": "AC50", "setting": "[5]", "result": "3.27 µM (active)"}, {"measurement": "AC50", "setting": "[6]", "result": "16.8 µM (active)"}, {"measurement": "AC50", "setting": "[7]", "result": "7.23 µM (active)"}, {"measurement": "IC50", "setting": "Interleukin-8 [8]", "result": "1.25 µM (active)"}, {"measurement": "IC50", "setting": "Interleukin-8 [9]", "result": "0.607 µM (active)"}]}]}
